Laboratory results taken from patent EP2505659A1, “Methods for the identification of dioxygenase interacting molecules and for the purification of dioxygenase proteins” (CELLZOME AG, priority 2011, dated 2012).
Where a name gives a salt, the structure may show the parent alone. Read-outs that look alike come from different tables or passages of the source.

How the values were obtained:
Experiment in all cases: Bead competition binding assay, immobilized compound A, K-562, HL-60 and Jurkat nuclear lysates
Details in all cases: 100 µM free compound A, read-out: Fold change versus DMSO control
[1] = biological target: T1, EGLN1 (Homo sapiens, UniProt Q9GZT9)
T1 construct: endogenous in cells
T1 sequence (Q9GZT9 whole entry): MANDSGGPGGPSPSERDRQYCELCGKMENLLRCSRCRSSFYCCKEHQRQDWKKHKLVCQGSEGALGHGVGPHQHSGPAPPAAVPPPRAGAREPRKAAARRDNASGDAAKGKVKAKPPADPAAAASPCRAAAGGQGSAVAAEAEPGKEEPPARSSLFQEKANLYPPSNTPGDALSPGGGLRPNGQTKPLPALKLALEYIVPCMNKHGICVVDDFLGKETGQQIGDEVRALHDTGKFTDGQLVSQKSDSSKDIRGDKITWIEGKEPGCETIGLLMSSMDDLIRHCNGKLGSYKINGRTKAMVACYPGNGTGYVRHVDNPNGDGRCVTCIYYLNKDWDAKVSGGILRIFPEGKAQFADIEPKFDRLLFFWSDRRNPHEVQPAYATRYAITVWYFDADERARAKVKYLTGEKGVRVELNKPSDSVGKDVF
Source text: (§1) K562 cells were also purchased from DSMZ (Braunschweig, Germany).
(§2) Table 5: Peptide elution off the LC system

[2] = biological target: T2, FTO (Homo sapiens, UniProt Q9C0B1)
T2 construct: endogenous in cells
T2 sequence (Q9C0B1 whole entry): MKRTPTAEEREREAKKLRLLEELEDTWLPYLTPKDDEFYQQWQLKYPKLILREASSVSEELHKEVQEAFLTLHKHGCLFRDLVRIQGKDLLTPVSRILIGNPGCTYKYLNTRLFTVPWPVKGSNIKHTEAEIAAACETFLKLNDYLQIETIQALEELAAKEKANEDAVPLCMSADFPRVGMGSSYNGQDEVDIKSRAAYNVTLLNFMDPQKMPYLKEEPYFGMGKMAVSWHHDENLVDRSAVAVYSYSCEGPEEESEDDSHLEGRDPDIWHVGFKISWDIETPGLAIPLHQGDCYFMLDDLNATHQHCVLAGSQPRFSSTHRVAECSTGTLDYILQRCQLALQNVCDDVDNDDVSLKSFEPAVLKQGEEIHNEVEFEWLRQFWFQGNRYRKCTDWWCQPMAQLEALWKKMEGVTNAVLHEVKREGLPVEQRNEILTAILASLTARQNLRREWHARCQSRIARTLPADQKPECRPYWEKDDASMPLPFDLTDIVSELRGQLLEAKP
Source text: as §1, §2

[3] = biological target: T3, ALKBH7 (Homo sapiens, UniProt Q9BT30)
T3 construct: capturing and identification of dioxygenases from nuclear lysates of three different cell lines; endogenous in cells; host or cells: K-562, HL-60 and Jurkat nuclear lysates
T3 sequence (Q9BT30 21-221): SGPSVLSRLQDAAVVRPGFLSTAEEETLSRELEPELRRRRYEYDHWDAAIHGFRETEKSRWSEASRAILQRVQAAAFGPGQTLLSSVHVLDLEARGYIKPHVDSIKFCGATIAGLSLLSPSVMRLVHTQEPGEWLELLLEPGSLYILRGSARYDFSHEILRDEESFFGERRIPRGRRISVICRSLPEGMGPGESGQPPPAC
Source text: as §1, §2
(§3) Seventeen different dioxygenases were identified.

[4] = biological target: T4, EGLN2 (Homo sapiens, UniProt Q96KS0)
T4 construct: capturing and identification of dioxygenases from nuclear lysates of three different cell lines; endogenous in cells; host or cells: K-562, HL-60 and Jurkat nuclear lysates
T4 sequence (Q96KS0 whole entry): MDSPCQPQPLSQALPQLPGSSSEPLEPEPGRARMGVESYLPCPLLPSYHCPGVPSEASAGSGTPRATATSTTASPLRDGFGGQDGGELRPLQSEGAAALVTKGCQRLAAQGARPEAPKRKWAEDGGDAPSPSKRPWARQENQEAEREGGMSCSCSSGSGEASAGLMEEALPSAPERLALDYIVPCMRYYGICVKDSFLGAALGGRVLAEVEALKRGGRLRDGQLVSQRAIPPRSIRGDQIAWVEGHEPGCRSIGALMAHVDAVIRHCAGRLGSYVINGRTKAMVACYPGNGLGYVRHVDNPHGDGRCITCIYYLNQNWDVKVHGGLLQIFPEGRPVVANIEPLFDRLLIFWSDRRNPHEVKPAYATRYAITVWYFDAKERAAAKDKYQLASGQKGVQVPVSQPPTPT
Source text: as §1, §2, §3

[5] = biological target: T5, LEPRE1 (Homo sapiens, UniProt Q32P28)
T5 construct: capturing and identification of dioxygenases from nuclear protein extracts; endogenous in cells
T5 sequence (Q32P28 23-736): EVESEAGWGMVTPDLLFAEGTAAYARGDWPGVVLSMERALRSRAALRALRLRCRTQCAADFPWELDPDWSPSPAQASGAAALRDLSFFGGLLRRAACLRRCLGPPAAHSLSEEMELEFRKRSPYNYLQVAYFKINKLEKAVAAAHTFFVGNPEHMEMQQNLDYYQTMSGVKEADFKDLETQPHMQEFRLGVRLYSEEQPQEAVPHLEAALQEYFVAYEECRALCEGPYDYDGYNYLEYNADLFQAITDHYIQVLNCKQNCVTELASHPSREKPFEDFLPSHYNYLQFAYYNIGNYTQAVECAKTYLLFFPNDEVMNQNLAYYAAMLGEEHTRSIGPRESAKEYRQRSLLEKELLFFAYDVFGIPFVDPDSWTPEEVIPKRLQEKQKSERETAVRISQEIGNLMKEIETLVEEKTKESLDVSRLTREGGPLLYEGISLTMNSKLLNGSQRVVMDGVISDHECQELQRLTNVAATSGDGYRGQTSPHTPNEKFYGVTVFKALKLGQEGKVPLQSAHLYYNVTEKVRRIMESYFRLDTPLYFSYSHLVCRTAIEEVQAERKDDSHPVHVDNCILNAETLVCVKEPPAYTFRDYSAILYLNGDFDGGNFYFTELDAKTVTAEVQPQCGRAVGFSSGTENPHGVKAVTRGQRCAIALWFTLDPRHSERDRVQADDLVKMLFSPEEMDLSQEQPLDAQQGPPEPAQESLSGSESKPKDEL
Source text: as §1, §2, §3

[6] = biological target: T6, OGFOD1 (Homo sapiens, UniProt Q8N543)
T6 construct: capturing and identification of dioxygenases from nuclear protein extracts; endogenous in cells
T6 sequence (Q8N543 whole entry): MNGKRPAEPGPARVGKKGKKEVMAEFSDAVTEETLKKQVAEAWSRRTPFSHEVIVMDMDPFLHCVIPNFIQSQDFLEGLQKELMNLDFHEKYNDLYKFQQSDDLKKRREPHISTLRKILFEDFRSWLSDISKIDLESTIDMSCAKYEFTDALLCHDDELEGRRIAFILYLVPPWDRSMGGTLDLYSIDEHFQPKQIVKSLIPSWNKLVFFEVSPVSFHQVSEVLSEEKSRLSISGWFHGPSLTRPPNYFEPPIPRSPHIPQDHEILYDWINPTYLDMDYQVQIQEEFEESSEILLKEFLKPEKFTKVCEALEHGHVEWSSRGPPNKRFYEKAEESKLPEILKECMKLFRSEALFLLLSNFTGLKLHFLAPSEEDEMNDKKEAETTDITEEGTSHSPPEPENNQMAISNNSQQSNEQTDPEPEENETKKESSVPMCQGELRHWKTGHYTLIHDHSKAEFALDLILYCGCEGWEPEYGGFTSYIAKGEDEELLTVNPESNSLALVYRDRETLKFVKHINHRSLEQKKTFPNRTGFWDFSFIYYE
Source text: as §1, §2, §3

[7] = biological target: T7, P4HA2 (Homo sapiens, UniProt O15460)
T7 construct: capturing and identification of dioxygenases from nuclear lysates of three different cell lines; endogenous in cells; host or cells: K-562, HL-60 and Jurkat nuclear lysates
T7 sequence (O15460 22-535): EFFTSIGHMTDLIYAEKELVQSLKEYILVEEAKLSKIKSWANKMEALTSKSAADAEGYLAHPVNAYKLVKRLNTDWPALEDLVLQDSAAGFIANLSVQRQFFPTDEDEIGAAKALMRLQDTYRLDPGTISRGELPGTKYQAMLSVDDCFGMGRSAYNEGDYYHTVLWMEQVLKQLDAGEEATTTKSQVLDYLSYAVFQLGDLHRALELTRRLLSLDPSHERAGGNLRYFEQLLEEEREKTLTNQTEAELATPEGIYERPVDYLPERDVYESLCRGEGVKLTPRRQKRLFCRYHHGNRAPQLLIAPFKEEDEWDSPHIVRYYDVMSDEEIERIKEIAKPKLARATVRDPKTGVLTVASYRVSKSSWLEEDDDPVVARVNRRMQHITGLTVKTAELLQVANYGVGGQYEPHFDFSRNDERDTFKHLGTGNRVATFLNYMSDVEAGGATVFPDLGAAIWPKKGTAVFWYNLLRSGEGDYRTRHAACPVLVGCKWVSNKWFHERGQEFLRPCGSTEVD
T7 sequence (P07237 18-508 partner): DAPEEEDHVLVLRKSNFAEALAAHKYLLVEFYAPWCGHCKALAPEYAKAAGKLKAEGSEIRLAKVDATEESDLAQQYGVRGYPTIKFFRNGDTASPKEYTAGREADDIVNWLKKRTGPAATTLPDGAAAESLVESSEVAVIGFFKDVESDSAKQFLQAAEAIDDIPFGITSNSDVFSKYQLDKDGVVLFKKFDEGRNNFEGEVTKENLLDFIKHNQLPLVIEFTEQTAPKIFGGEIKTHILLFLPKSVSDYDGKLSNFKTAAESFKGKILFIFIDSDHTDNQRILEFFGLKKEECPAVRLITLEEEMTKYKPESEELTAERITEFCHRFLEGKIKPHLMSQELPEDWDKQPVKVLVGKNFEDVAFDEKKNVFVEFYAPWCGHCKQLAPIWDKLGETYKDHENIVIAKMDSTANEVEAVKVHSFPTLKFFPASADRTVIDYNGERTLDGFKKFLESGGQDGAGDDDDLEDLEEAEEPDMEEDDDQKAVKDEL
Source text: as §1, §2, §3

[8] = biological target: T8, PLOD2 (Homo sapiens, UniProt O00469)
T8 construct: capturing and identification of dioxygenases from nuclear lysates of three different cell lines; endogenous in cells; host or cells: K-562, HL-60 and Jurkat nuclear lysates
T8 sequence (O00469 26-737): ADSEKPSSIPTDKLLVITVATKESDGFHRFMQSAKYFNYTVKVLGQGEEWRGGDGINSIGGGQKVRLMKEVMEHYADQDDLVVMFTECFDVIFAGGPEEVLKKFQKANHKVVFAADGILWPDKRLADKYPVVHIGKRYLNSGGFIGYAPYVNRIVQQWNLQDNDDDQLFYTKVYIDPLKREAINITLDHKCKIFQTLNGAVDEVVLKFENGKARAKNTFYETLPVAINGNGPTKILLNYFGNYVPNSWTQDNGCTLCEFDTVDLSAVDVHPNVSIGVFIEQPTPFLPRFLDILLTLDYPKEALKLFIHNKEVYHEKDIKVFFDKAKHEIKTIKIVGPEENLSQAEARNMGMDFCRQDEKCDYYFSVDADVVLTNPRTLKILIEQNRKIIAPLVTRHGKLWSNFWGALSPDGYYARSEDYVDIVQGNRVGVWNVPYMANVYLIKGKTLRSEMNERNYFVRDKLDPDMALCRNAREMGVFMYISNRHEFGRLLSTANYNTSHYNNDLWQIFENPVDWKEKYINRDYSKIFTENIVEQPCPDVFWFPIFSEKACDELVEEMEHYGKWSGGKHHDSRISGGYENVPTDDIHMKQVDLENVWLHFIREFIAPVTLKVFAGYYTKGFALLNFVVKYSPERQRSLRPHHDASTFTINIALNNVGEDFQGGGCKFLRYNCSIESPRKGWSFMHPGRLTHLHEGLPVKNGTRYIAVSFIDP
Source text: as §1, §2, §3

[9] = biological target: T9, TMLHE (Homo sapiens, UniProt Q9NVH6)
T9 construct: capturing and identification of dioxygenases from nuclear lysates of three different cell lines; endogenous in cells; host or cells: K-562, HL-60 and Jurkat nuclear lysates
T9 sequence (Q9NVH6 16-421): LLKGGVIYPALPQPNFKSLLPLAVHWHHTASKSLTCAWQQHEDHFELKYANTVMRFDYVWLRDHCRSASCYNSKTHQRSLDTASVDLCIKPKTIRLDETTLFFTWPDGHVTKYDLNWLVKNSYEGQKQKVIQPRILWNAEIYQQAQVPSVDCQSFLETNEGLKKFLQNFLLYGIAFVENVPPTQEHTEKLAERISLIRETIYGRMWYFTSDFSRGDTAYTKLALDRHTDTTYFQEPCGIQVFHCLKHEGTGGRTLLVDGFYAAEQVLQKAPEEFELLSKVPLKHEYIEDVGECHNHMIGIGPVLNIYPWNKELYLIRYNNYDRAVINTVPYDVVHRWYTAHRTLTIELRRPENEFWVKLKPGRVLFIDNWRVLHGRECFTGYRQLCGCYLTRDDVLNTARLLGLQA
Source text: as §1, §2, §3

With `O=C(O)CNC(=O)C1C(=O)OC2(CCNCC2)OC1=O` [compound A, 2-(2,4-dioxo-1,5-dioxa-9-azaspiro[5.5]undecane-3-carboxamido)acetic acid hydrochloride] the remaining binding at 100 µM ([1]; HL-60 nuclear lysate) was 24%, the remaining binding at 100 µM ([1]; Jurkat nuclear lysate) was 13% and the remaining binding at 100 µM ([2]; Jurkat nuclear lysate) was 8%. The remaining binding at 100 µM ([2]; K-562 nuclear lysate) was 19%, the remaining binding at 100 µM ([3]; HL-60 nuclear lysate) was 82% and the remaining binding at 100 µM ([3]; Jurkat nuclear lysate) was 55%. It also gave a remaining binding at 100 µM ([3]; K-562 nuclear lysate) of 54%, a remaining binding at 100 µM ([4]; HL-60 nuclear lysate) of 124% and a remaining binding at 100 µM ([4]; Jurkat nuclear lysate) of 123%. It also gave a remaining binding at 100 µM ([4]; K-562 nuclear lysate) of 75%, a remaining binding at 100 µM ([5]; HL-60 nuclear lysate) of 126% and a remaining binding at 100 µM ([5]; Jurkat nuclear lysate) of 90%. The remaining binding at 100 µM ([5]; K-562 nuclear lysate) was 100%, the remaining binding at 100 µM ([6]; HL-60 nuclear lysate) was 50% and the remaining binding at 100 µM ([6]; Jurkat nuclear lysate) was 30%. For the same compound, the remaining binding at 100 µM ([6]; K-562 nuclear lysate) was 19%, the remaining binding at 100 µM ([7]; HL-60 nuclear lysate) was 279% and the remaining binding at 100 µM ([7]; Jurkat nuclear lysate) was 136%. The remaining binding at 100 µM ([7]; K-562 nuclear lysate) was 28%, the remaining binding at 100 µM ([8]; HL-60 nuclear lysate) was 86% and the remaining binding at 100 µM ([8]; Jurkat nuclear lysate) was 109%. The remaining binding at 100 µM ([8]; K-562 nuclear lysate) was 54%, the remaining binding at 100 µM ([9]; HL-60 nuclear lysate) was 104% and the remaining binding at 100 µM ([9]; Jurkat nuclear lysate) was 49%. The remaining binding at 100 µM ([9]; K-562 nuclear lysate) was 50%.
